Numbers after ± are expanded uncertainties.
Conditions: Liquid; for mass density: 298.15 K, 101.33 kPa, Pycnometric method

Row | Normal boiling temperature (Distillation) [°C] | SMILES | mass density [kg/m3] | Normal boiling temperature (boiling in a capillary) [°C]
1 | – | O=[N+]([O-])C(C1CC1)(C1CC1)[N+](=O)[O-] [dicyclopropyldinitromethane] | 1239.7 ± 1 | 290 ± 3
2 | 160 ± 2 | C1CC1C(C1CC1)C1CC1 [tricyclopropylmethane] | 850 ± 1 | –

From the NIST ThermoML archive (doi:10.1016/j.jct.2018.12.040)
